Data as given in the NIST ThermoML archive (doi:10.1021/je060271a).

Conditions: 323.15 K, Liquid, Vibrating tube method

CCCCCCC(=O)OCC(COC(=O)CCCCCC)(COC(=O)CCCCCC)COC(=O)CCCCCC [pentaerythritol tetraheptanoate]
Conditions	mass density [kg/m3]
10134 kPa	962.4
10149 kPa	962.4
10164 kPa	962.4
10178 kPa	962.4
10196 kPa	962.4
10211 kPa	962.5
10229 kPa	962.4
10244 kPa	962.5
10259 kPa	962.5
10274 kPa	962.5
10292 kPa	962.5
10307 kPa	962.6
10322 kPa	962.6
10338 kPa	962.5
10356 kPa	962.7
10371 kPa	962.6
10386 kPa	962.7
10405 kPa	962.7
10420 kPa	962.7
10436 kPa	962.7
10468 kPa	962.6
10487 kPa	962.6
10503 kPa	962.8
10519 kPa	962.7
10538 kPa	962.7
10553 kPa	962.7
10572 kPa	962.8
10588 kPa	962.7
10604 kPa	962.8
10620 kPa	962.8
10639 kPa	962.8
10656 kPa	962.8
10672 kPa	962.7
10692 kPa	962.8
10708 kPa	962.8
10725 kPa	962.8
10741 kPa	962.8
10761 kPa	962.8
10777 kPa	962.8
10794 kPa	962.9
10814 kPa	962.9
10831 kPa	963
10851 kPa	963
10868 kPa	963
10885 kPa	962.9
10902 kPa	963
10923 kPa	963
10939 kPa	963
11105 kPa	963.1
11376 kPa	963.3
11395 kPa	963.2
11414 kPa	963.3
11433 kPa	963.2
11455 kPa	963.3
11474 kPa	963.3
11493 kPa	963.4
11516 kPa	963.3
11535 kPa	963.3
11558 kPa	963.4
11577 kPa	963.4
11597 kPa	963.4
11616 kPa	963.5
11640 kPa	963.4
11659 kPa	963.3
11979 kPa	963.7
12025 kPa	963.7
12045 kPa	963.6
12070 kPa	963.6
12091 kPa	963.7
12113 kPa	963.7
12138 kPa	963.7
12159 kPa	963.7
12181 kPa	963.8
12205 kPa	963.8
12226 kPa	963.7
12252 kPa	963.7
12274 kPa	963.9
12296 kPa	963.8
12322 kPa	963.9
12344 kPa	963.9
12367 kPa	964
12389 kPa	963.9
12416 kPa	963.9
12438 kPa	964
12488 kPa	963.9
12510 kPa	963.9
12533 kPa	964.1
12583 kPa	964.1
12606 kPa	964.1
12634 kPa	964.1
12680 kPa	964.2
12756 kPa	964.1
12832 kPa	964.3
12856 kPa	964.2
12884 kPa	964.2
12908 kPa	964.2
12937 kPa	964.3
13227 kPa	964.5
14188 kPa	965.1
14278 kPa	965.1
14314 kPa	965
14343 kPa	965.1
14609 kPa	965.3
14641 kPa	965.4
14675 kPa	965.3
14706 kPa	965.3
14744 kPa	965.4
14917 kPa	965.5
14957 kPa	965.6
14988 kPa	965.6
15013 kPa	965.6
15044 kPa	965.4
15070 kPa	965.6
15097 kPa	965.6
15124 kPa	965.6
15154 kPa	965.6
15175 kPa	965.8
15192 kPa	965.7
15213 kPa	965.7
15230 kPa	965.7
15251 kPa	965.6
15268 kPa	965.8
15287 kPa	965.7
15328 kPa	965.7
15347 kPa	965.7
15381 kPa	965.7
15629 kPa	966.1
15638 kPa	966.1
15649 kPa	966
15707 kPa	966
15727 kPa	966
15736 kPa	966
15745 kPa	966
15765 kPa	966.1
15774 kPa	966.1
15785 kPa	966.1
15794 kPa	966
15804 kPa	965.9
15814 kPa	966
15824 kPa	966.2
15833 kPa	966.2
15844 kPa	966.1
15863 kPa	966.1
15903 kPa	966.2
15953 kPa	966.3
15962 kPa	966.3
15972 kPa	966.2
15981 kPa	966.2
15992 kPa	966.3
16003 kPa	966.2
16012 kPa	966.2
16021 kPa	966.3
16033 kPa	966.3
16042 kPa	966.2
16052 kPa	966.3
16063 kPa	966.3
16072 kPa	966.3
16083 kPa	966.2
16092 kPa	966.3
16102 kPa	966.3
16112 kPa	966.2
16123 kPa	966.2
16133 kPa	966.3
16142 kPa	966.4
16154 kPa	966.3
16163 kPa	966.3
16175 kPa	966.3
16184 kPa	966.3
16194 kPa	966.4
16203 kPa	966.4
16215 kPa	966.3
16224 kPa	966.3
16234 kPa	966.5
16246 kPa	966.4
16256 kPa	966.3
16267 kPa	966.4
16277 kPa	966.3
16286 kPa	966.4
16296 kPa	966.5
16308 kPa	966.3
16317 kPa	966.4
16329 kPa	966.4
16339 kPa	966.3
16349 kPa	966.4
16360 kPa	966.4
16370 kPa	966.6
16380 kPa	966.4
16390 kPa	966.3
16402 kPa	966.4
16412 kPa	966.4
16422 kPa	966.5
16434 kPa	966.6
16443 kPa	966.5
16455 kPa	966.5
16465 kPa	966.5
16475 kPa	966.5
16487 kPa	966.6
16496 kPa	966.5
16507 kPa	966.6
16519 kPa	966.6
16529 kPa	966.6
16539 kPa	966.6
16551 kPa	966.5
16562 kPa	966.6
16572 kPa	966.5
16582 kPa	966.6
16594 kPa	966.5
16604 kPa	966.7
16614 kPa	966.6
16626 kPa	966.8
16636 kPa	966.6
16649 kPa	966.4
16657 kPa	966.6
16670 kPa	966.7
16680 kPa	966.6
16692 kPa	966.6
16702 kPa	966.7
16712 kPa	966.6
16725 kPa	966.6
16735 kPa	966.7
16823 kPa	966.7
16834 kPa	966.7
16844 kPa	966.8
16857 kPa	966.6
